{
  "source": "ChEMBL document CHEMBL5390242",
  "about": "“Design, Synthesis, and Antitumor Efficacy of Substituted 2-Amino[1,2,4]triazolopyrimidines and Related Heterocycles as Dual Inhibitors for Microtubule Polymerization and Janus Kinase 2” (J Med Chem, 2023)",
  "key": {"[1]": {"assay": "MRT (0 to infinity) in CD-1 mouse at 1 mg/kg,iv measured upto 24 hrs by HPLC-MS/MS analysis", "assay_type": "ADME, organism-based", "conditions": "in vivo"}, "A549 [2]": {"system": "A549", "assay": "Induction of apoptosis in human A549 cells assessed as necrotic cells at 5 nM incubated for 24 hrs by Annexin V-FITC/PI staining based flow cytometry (reference value: 0.67 %)", "assay_type": "functional"}, "A549 [3]": {"system": "A549", "assay": "Induction of cell cycle arrest in human A549 cells assessed as accumulation of cells at G2/M phase at 20 nM incubated for 24 hrs by PI/RNase staining based flow cytometry analysis", "assay_type": "functional"}, "[4]": {"assay": "Oral bioavailability in CD-1 mouse at 10 mg/kg,ip measured upto 24 hrs by HPLC-MS/MS analysis", "assay_type": "ADME, organism-based", "conditions": "in vivo"}, "[5]": {"assay": "Antiproliferative activity against Chinese hamster CHO-K1 cells assessed as cell growth inhibition incubated for 48 hrs by MTT assay", "assay_type": "toxicity, cell-based, Cricetulus griseus"}, "A549 [6]": {"system": "A549", "assay": "Antitumor activity against human A549 cells xenografted in Balb/c mouse assessed as reduction in tumor weight at 50 mg/kg,ip administration measured after 31 days", "assay_type": "functional", "design": "scale not given: the % may be the effect or the level left", "conditions": "time 31 day"}, "[7]": {"assay": "Cytotoxicity against human ARPE-19 cells assessed as cell growth inhibition incubated for 48 hrs by MTT assay", "assay_type": "toxicity, cell-based"}, "[8]": {"assay": "Antiproliferative activity against human HCT-8/VCR cells assessed as cell growth inhibition incubated for 48 hrs by MTT assay", "assay_type": "functional, cell-based"}, "[9]": {"assay": "AUC (0 to infinity) in CD-1 mouse at 1 mg/kg,iv measured upto 24 hrs by HPLC-MS/MS analysis", "assay_type": "ADME, organism-based", "design": "dose 1 mg/kg, time < 24 hrs, route iv", "conditions": "in vivo"}, "[10]": {"assay": "MRT (0 to t) in CD-1 mouse assessed as MRT (0 to t) of metabolite at 10 mg/kg,ip measured upto 24 hrs by HPLC-MS/MS analysis", "assay_type": "ADME, organism-based", "conditions": "in vivo"}, "[11]": {"assay": "Toxicity in Balb/c mouse xenografted with human A549 cells assessed as effect on heart morphology at 50 mg/kg,ip administration measured after 31 days by Hematoxylin-eosin staining based microscopy", "assay_type": "organism-based", "conditions": "in vivo, 744 h, time 31 day"}, "[12]": {"assay": "Toxicity in Balb/c mouse xenografted with human A549 cells assessed as effect on spleen morphology at 50 mg/kg,ip administration measured after 31 days by Hematoxylin-eosin staining based microscopy", "assay_type": "organism-based", "conditions": "in vivo, 744 h, time 31 day"}, "A549 [13]": {"system": "A549", "assay": "Induction of apoptosis in human A549 cells at 10 uM incubated for 24 hrs by Annexin V-FITC/PI staining based flow cytometry", "assay_type": "functional"}, "[14]": {"assay": "Toxicity in Balb/c mouse xenografted with human A549 cells assessed as effect on lung morphology at 50 mg/kg,ip administration measured after 31 days by Hematoxylin-eosin staining based microscopy", "assay_type": "organism-based", "conditions": "in vivo, 744 h, time 31 day"}, "[15]": {"assay": "AUC (0 to t) in CD-1 mouse at 1 mg/kg,iv measured upto 24 hrs by HPLC-MS/MS analysis", "assay_type": "ADME, organism-based", "design": "dose 1 mg/kg, time < 24 hrs, route iv", "conditions": "in vivo"}, "[16]": {"assay": "Toxicity in Balb/c mouse xenografted with human A549 cells assessed as effect on kidney morphology at 50 mg/kg,ip administration measured after 31 days by Hematoxylin-eosin staining based microscopy", "assay_type": "organism-based", "conditions": "in vivo, 744 h, time 31 day"}, "[17]": {"assay": "Toxicity in Balb/c mouse xenografted with human A549 cells assessed as change in body weight at 50 mg/kg,ip administration measured after 31 days", "assay_type": "organism-based", "conditions": "in vivo, 744 h, time 31 day"}, "A2780/Taxol": {"system": "A2780/Taxol", "assay": "Antiproliferative activity against human A2780T cells assessed as cell growth inhibition incubated for 48 hrs by MTT assay", "assay_type": "functional, cell-based"}, "[18]": {"assay": "MRT (0 to infinity) in CD-1 mouse assessed as MRT (0 to infinity) of metabolite at 10 mg/kg,ip measured upto 24 hrs by HPLC-MS/MS analysis", "assay_type": "ADME, organism-based", "conditions": "in vivo"}, "A549 [19]": {"system": "A549", "assay": "Induction of apoptosis in human A549 cells assessed as reduction of mitochondrial membrane potential at 5 to 20 nM incubated for 16 hrs by JC-1 staining based fluorescence microscopy", "assay_type": "functional, cell-based", "conditions": "dose 5-20 nM"}, "[20]": {"target": "T1, JAK2-STAT3 (Homo sapiens) (UniProt O60674+P40763)", "assay": "Inhibition of JAK2/STAT3 signalling pathway in human A549 cells assessed as effect on JAK2 protein level at 5 to 20 uM incubated for 24 hrs by Western blotting analysis", "assay_type": "cell-based", "conditions": "dose 5-20 µM"}, "Tubulin (Homo sapiens)": {"target": "Tubulin (Homo sapiens) (UniProt P68371+Q9H4B7+P0DPH7+P68366+Q13509+Q71U36+P04350+Q3ZCM7+P07437+P68363+Q9BQE3+Q6PEY2+Q13885+Q9BVA1+Q9BUF5)", "assay": "Disruption of microtubule assembly in human A549 cells at 0.1 uM incubated for 6 hrs by Hoechst33342 staining based immunofluorescence analysis", "assay_type": "cell-based"}, "HepG2": {"system": "HepG2", "assay": "Cytotoxicity against human HepG2 cells assessed as cell growth inhibition incubated for 48 hrs by MTT assay", "assay_type": "functional, cell-based", "conditions": "HepG2, 48 h"}, "A549 [21]": {"system": "A549", "assay": "Induction of apoptosis in human A549 cells assessed as increase in intracellular ROS level at 5 to 20 nM incubated for 16 hrs by DCFH-DA staining based fluorescence microscopy", "assay_type": "functional, cell-based", "conditions": "dose 5-20 nM"}, "A549 [22]": {"system": "A549", "assay": "Induction of apoptosis in human A549 cells at 20 uM incubated for 24 hrs by Annexin V-FITC/PI staining based flow cytometry", "assay_type": "functional"}, "[23]": {"target": "T1, JAK2-STAT3 (Homo sapiens)", "assay": "Inhibition of JAK2/STAT3 signalling pathway in human A549 cells assessed as effect on STAT3 protein level at 5 to 20 uM incubated for 24 hrs by Western blotting analysis", "assay_type": "cell-based", "conditions": "dose 5-20 µM"}, "[24]": {"assay": "Cytotoxicity against human L02 cells assessed as cell growth inhibition incubated for 48 hrs by MTT assay", "assay_type": "toxicity, cell-based"}, "[25]": {"assay": "Cmax in CD-1 mouse assessed as Cmax of metabolite at 10 mg/kg,ip measured upto 24 hrs by HPLC-MS/MS analysis", "assay_type": "ADME, organism-based", "design": "time < 24 hrs, dose 10 mg/kg, route ip", "conditions": "in vivo"}, "A549 [26]": {"system": "A549", "assay": "Induction of apoptosis in human A549 cells assessed as late apoptotic cells at 5 nM incubated for 24 hrs by Annexin V-FITC/PI staining based flow cytometry (reference value: 1.72 %)", "assay_type": "functional"}, "PC-3": {"system": "PC-3", "assay": "Antiproliferative activity against human PC-3 cells assessed as cell growth inhibition incubated for 48 hrs by MTT assay", "assay_type": "functional, cell-based", "conditions": "PC-3, 48 h"}, "[27]": {"target": "Tyrosine-protein kinase JAK1 (Homo sapiens, UniProt P23458)", "sequence (P23458 whole entry)": "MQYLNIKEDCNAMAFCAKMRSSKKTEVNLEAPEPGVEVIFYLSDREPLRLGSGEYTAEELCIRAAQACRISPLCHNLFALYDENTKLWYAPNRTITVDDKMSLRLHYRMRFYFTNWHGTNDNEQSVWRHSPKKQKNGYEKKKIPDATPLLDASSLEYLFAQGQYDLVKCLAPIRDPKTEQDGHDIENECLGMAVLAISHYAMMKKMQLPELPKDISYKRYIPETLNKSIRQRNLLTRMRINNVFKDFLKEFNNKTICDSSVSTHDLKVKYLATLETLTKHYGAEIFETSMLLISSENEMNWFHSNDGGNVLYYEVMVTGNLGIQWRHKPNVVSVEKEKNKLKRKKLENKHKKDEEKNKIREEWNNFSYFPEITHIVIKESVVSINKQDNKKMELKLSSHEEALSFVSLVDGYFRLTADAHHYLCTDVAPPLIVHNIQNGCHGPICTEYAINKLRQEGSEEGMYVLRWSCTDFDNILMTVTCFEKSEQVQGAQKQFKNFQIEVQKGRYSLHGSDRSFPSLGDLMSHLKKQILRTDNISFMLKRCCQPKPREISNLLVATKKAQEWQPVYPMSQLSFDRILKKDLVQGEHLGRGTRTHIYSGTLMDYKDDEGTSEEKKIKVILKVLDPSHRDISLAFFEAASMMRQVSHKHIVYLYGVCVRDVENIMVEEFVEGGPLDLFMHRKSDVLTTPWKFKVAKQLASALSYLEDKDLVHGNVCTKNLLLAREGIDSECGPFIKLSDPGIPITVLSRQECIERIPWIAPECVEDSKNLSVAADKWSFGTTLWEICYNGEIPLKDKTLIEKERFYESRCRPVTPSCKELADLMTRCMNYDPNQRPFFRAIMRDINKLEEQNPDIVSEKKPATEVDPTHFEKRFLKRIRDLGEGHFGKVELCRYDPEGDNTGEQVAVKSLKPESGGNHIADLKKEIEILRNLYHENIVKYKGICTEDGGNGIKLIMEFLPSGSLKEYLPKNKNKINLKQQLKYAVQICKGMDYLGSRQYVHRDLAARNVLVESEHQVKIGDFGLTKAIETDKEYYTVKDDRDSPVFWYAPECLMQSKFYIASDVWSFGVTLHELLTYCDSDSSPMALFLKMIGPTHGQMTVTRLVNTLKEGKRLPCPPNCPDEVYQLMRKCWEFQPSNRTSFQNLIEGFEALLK", "assay": "Inhibition of JAK1 (unknown origin) using Poly-(Glu,Tyr 4:1) peptide as substrate in presence of ATP by ADP-Glo reagent based assay"}, "MCF7": {"system": "MCF7", "assay": "cells", "conditions": "Homo sapiens, MCF7, 48 h", "description": "Antiproliferative activity against human MCF7 cells assessed as cell growth inhibition incubated for 48 hrs by MTT assay"}, "[28]": {"assay": "MRT (0 to t) in CD-1 mouse at 1 mg/kg,iv measured upto 24 hrs by HPLC-MS/MS analysis", "assay_type": "ADME, organism-based", "conditions": "in vivo"}, "[29]": {"target": "T1, JAK2-STAT3 (Homo sapiens)", "assay": "Inhibition of JAK2/STAT3 signalling pathway in human A549 cells assessed as downregulation of JAK2 phosphorylation incubated for 24 hrs by Western blotting analysis", "assay_type": "cell-based"}, "[30]": {"target": "Tubulin beta (Homo sapiens) (UniProt P68371+Q9H4B7+Q13509+P04350+Q3ZCM7+P07437+Q13885+Q9BVA1+Q9BUF5+A6NNZ2)", "assay": "Binding affinity to beta-tubulin colchicine binding site in human A549 cells assessed as inhibition of EBI-beta-tubulin adduct band formation at 1 to 25 uM preincubated for 2 hrs followed by EBI addition measured after 1.5 hrs by EBI competition based Western blotting analysis", "assay_type": "cell-based", "conditions": "dose 1-25 µM"}, "[31]": {"target": "T1, JAK2-STAT3 (Homo sapiens)", "assay": "Inhibition of JAK2/STAT3 signalling pathway in human A549 cells assessed as downregulation of STAT3 phosphorylation incubated for 24 hrs by Western blotting analysis", "assay_type": "cell-based"}},
  "note": "pIC50: −log10 of the molar value. Calls of active or inactive are those of the source. The rule behind the calls is not given here.",
  "data": [
    {"compound": "COc1cc(-c2nccc3nc(Nc4cccc5[nH]ccc45)nn23)cc(OC)c1OC", "values": [
      {"measurement": "MRT inf", "setting": "[1]", "result": 7.1, "unit": "h"},
      {"measurement": "Activity", "setting": "A549 [2]", "result": 0.21, "unit": "%"},
      {"measurement": "Activity", "setting": "A549 [3]", "result": 91.5, "unit": "%"},
      {"measurement": "bioavailability", "setting": "[4]", "result": 15.4, "unit": "%"},
      {"measurement": "IC50 at 48 h", "setting": "[5]", "result": 130, "unit": "nM"},
      {"measurement": "Activity", "setting": "A549 [6]", "result": 70, "unit": "%"},
      {"measurement": "IC50 at 48 h", "setting": "[7]", "result": 5.03, "unit": "µM"},
      {"measurement": "pIC50", "setting": "[8]", "result": 7.31},
      {"measurement": "AUC(0-inf)", "setting": "[9]", "result": 390, "unit": "ng·h/mL"},
      {"measurement": "MRT(t)", "setting": "[10]", "result": 3.5, "unit": "h"},
      {"measurement": "Activity", "setting": "[11]", "result": "Non-Toxic"},
      {"measurement": "Activity", "setting": "[12]", "result": "Non-Toxic"},
      {"measurement": "Activity", "setting": "A549 [13]", "result": 40.6, "unit": "%"},
      {"measurement": "Activity", "setting": "[14]", "result": "Non-Toxic"},
      {"measurement": "AUC(0-t) at 24 h", "setting": "[15]", "result": 364, "unit": "ng·h/mL"},
      {"measurement": "Activity", "setting": "[16]", "result": "Non-Toxic"},
      {"measurement": "Activity", "setting": "[17]", "result": "Non-Toxic"},
      {"measurement": "pIC50", "setting": "A2780/Taxol", "result": 7.70},
      {"measurement": "MRT", "setting": "[18]", "result": 4, "unit": "h"},
      {"measurement": "Activity", "setting": "A549 [19]", "result": "Active"},
      {"measurement": "inhibition", "setting": "[20]", "result": "inactive"},
      {"measurement": "Activity", "setting": "Tubulin (Homo sapiens)", "result": "Active"},
      {"measurement": "pIC50", "setting": "HepG2", "result": 7.29},
      {"measurement": "Activity", "setting": "A549 [21]", "result": "Active"},
      {"measurement": "Activity", "setting": "A549 [22]", "result": 80.7, "unit": "%"},
      {"measurement": "inhibition", "setting": "[23]", "result": "inactive"},
      {"measurement": "IC50 at 48 h", "setting": "[24]", "result": 339, "unit": "nM"},
      {"measurement": "Cmax", "setting": "[25]", "result": 700.2, "unit": "ng/mL"},
      {"measurement": "Activity", "setting": "A549 [26]", "result": 1.78, "unit": "%"},
      {"measurement": "pIC50", "setting": "PC-3", "result": 6.65},
      {"measurement": "pIC50", "setting": "[27]", "result": "< 4.70"},
      {"measurement": "pIC50", "setting": "MCF7", "result": 7.74},
      {"measurement": "MRT last at 24 h", "setting": "[28]", "result": 5.2, "unit": "h"},
      {"measurement": "inhibition", "setting": "[29]", "result": "Dose-Dependent Effect"},
      {"measurement": "Activity", "setting": "[30]", "result": "Active"},
      {"measurement": "inhibition", "setting": "[31]", "result": "Dose-Dependent Effect"}
    ]}
  ]
}
